Test results taken from US20190125753A1, “COMPOUNDS AND METHODS FOR INCREASING HEMATOPOIESIS” (University of Southern California, priority 2016, published 2019).
pIC50: −log10 of the molar value.

What was measured:
Human survivin promoter = assay: Survivin/luciferase reporter (Survivin-Hek-293); type: cell-based; conditions: Homo sapiens; Survivin-Hek-293, 24 hours; read-out: survivin/luciferase reporter: did not inhibit up to
Experimental: Hek293 cells were stably transfected with plasmid that contains multiple TCF/LEF fragments in front of Luciferase gene. Wnt/β-catenin activity was determined from luciferase expression levels. […] Briefly, stably transfected Hek-293, STFI.1 (Wnt/β-catenin-driven luciferase) and Survivin-Hek-293 (1 Kb Human survivin promoter-driven luciferase) cells were maintained in DMEM, 10% FBS, Pen/Strep with 400 μg/mL G418 or 2 μg/mL puromycin, respectively. To check the activity of ICG-001, YH249, and YH250, the cells were split into white-opaque 96-well plates at 10,000 cells per well and allowed to attach overnight. For SuperTOPLASH, the inhibitors were added to the cells and pre-incubated for 1 hour prior to stimulation with 10 mM Li Cl for 24 hours. Luciferase activity was read using BrightGlo (Promnega) luciferase substrate. For survivin/luc, the inhibitors were added to the cells and incubated for 24 hours prior to readout. To calculate IC5o values, the resulting curve was fitted to a four-parameter logistic model (4PL) using GraphPad Prism 5 software.
B. Survivin Expression Level: The Secondary Screen.
An endogenous human survivin 1 kb promoter was inserted before a luciferase gene. […] R1 and R2 were diversified in this study. Percent inhibition of luciferase activity was calculated according to the following equations; % inhibition of STF 1.1 reporter activity=(I−RLU(10 mM LiCl) treated/RLU(10 omM LiCl) vehicle×control)100, % inhibition of Survivin reporter activity=(1−RLUtreated/RLU vehicle control)×100. Error bars indicate the mean±SE of 3 separate experiments. Selectivity (FIG. 2H) was calculated by IC50 value for Survivin-Hek-293/IC50 value for STF 1.1.

[1] = tested on: LSK150+41−48− cells (LTR-HSC); assay: RNA sequencing of long-term repopulating HSC from treated mice; type: in vivo, mouse; conditions: 2 mg/kg vs DMSO, 16 hours
Experimental: DMSO or YH250 (2 mg/kg) were administrated to female C57/Black mice.

bone marrow cells [2] = assay: Brief (4 h) incubation of bone marrow cells, 14 days culture, FACS; type: cell-based, mouse
Experimental: Bone marrow cells were treated with DMSO or YH250 (0.5 μM) for 4 hours, then the compound was removed and the cells cultured in QBSF-58 medium for 14 days with 10 ng/ml of SCF, TPO, Flt3 ligand, and IL-6. At the end of culture, cells were recovered and analyzed for LSK cells with FACS.
In a further study, female CD45.1 mice bone marrow cells were incubated with DMSO, or YH249 (0.5 μM) or YH250 (0.5 μM) for 4 hrs in QBSF-58 media, then 2×10^4 cells were plated in QBSF-58 medium containing SCF, TPO, Flt3 and IL-6 (10 ng/ml for each) for 14 days. Cells were then recovered from plate for FACS analysis. […] Correspondingly, there are higher LSK cells (52%, 60% and 70% respectively for DMSO, YH249 and YH250). From every 10,000 analyzed cells, LSKCD34negt cell numbers are 437, 663 and 2051 for DMSO, YH249 and YH250 treated cells, respectively.

cord blood CD34+ cells = assay: Cord blood CD34+ cell culture, colony morphology at day 8; type: cell-based, human; conditions: 4GF medium, day 8 in culture
Experimental: Cord blood CD34^+ cells were cultured in serum free medium with different growth factor combination and different concentrations of YH250. We tested three serum free mediums with either 4 growth factors (4GF, or SF6T: SCF 100 ng/ml; Flt3 100 ng/ml, IL-6 20 ng/ml, and TPO 20 ng/ml) or 6 growth factors (6GF, or SF6TG3: SCF 100 ng/ml; Flt3 100 ng/ml, IL-6 20 ng/ml, TPO 20 ng/ml, GCSF 10 ng/ml, and IL-3 10 ng/ml). YH250 was at 0.3 μM or 1 μM concentration, DMSO, the solvent for YH250, was used as control. Frozen cord blood CD34+ cells were plated into 96 wells with different medium and different growth factors and different compound concentrations. At day 8 in culture, pictures were taken to record the cell growth and colony morphology (FIG. 12A).

[3] = tested on: LTR-HSC (LSKCD34−CD135−CD150+ cells); assay: BrdU incorporation in bone marrow HSPC in vivo; parameters: species or system mouse; conditions: 24 or 48 hrs post administration
Description: P300/-catenin antagonists stimulate HSPC proliferation both in vitro and in vivo. In this study, 24 or 48 hrs post either DMSO or YH250 administration, BrdU was given to animals and bone marrow cells were isolated and analyzed to determine HSPC proliferation (FIG. 15A). Bone marrow cells were stained with antibodies to lineage markers (CD3, CD4, CD8, B220, CD16, Gr-1, Mac-1), antibodies to Sca-1, c-kit, CD135, CD34, CD150 and BrdU.

bone marrow cells [4] = assay: Radiation induced apoptosis, cleaved PARP FACS; type: in vivo; conditions: administered 18 hours before 5Gy radiation; 6 hours after radiation
Experimental: Since p300/-catenin antagonists such as YH250 up-regulate survivin gene expression, YH250 was tested for the ability to attenuate radiation induced cell apoptosis by detecting cleaved PARP (Poly ADP ribose polymerase-1) using anti-PARP antibody and FACS analysis (BD Bioscience, Cat#562253, anti-PARP clone F21-852). DMSO or YH250 were administrated 18 hours before 5Gy radiation. 6 hours after radiation, bone marrow cells were isolated and stained for cell surface markers (lineage markers, Sca-1, c-kit) and anti-PARP (FIG. 23A).

[5] = 0.5 μM 4 hours, 14 days in QBSF-58 with SCF, TPO, Flt3 ligand, IL-6

COc1cccc(CNC(=O)N2C3CN(Cc4cc(Cl)cc(Cl)c4N(C)C)C(=O)[C@H](Cc4ccc(O)cc4)N3C(=O)CN2C)c1OC (stereo partly shown) [YH250]
pIC50 (Human survivin promoter): < 4.70 | Fold-Change A430005L14Rik [1]: 2.07 fold | Fold-Change Car1 [1]: 46.29 fold | Fold-Change Casp6 [1]: 2.56 fold | Fold-Change Cd52 [1]: 3.09 fold | Fold-Change Cd53 [1]: 2.79 fold | Fold-Change Cd69 [1]: 2.44 fold | Fold-Change Cd74 [1]: 2.30 fold | Fold-Change Cd79a [1]: 5.49 fold | Fold-Change Cdc123 [1]: 2.13 fold | Fold-Change Dtx3 [1]: −2.12 fold | Fold-Change Gm21897 [1]: −2.18 fold | Fold-Change Gm26377 (miRNA) [1]: −58.02 fold | Fold-Change Ighm [1]: 6.14 fold | Fold-Change Ighv11-2 [1]: 8.18 fold | Fold-Change Igj [1]: 3.36 fold | Fold-Change Igkc [1]: 3.93 fold | Fold-Change Igkv14-126 [1]: 8.00 fold | Fold-Change Igkv19-93 [1]: 21.16 fold | Fold-Change Iglc2 [1]: 4.58 fold | Fold-Change Il2rg [1]: 2.03 fold | Fold-Change Kcnq1ot1 (antisense) [1]: −2.37 fold | Fold-Change Ldlr [1]: −3.57 fold | Fold-Change Ly6c2 [1]: 7.17 fold | Fold-Change Mid1 [1]: −3.98 fold | Fold-Change Mrpl30 [1]: 2.07 fold | Fold-Change Ndufaf7 [1]: 3.45 fold | Fold-Change Pias1 [1]: 2.02 fold | Fold-Change Psmf1 [1]: 2.48 fold | Fold-Change RP23-99K18.3 (lincRNA) [1]: −2.28 fold | Fold-Change Tgtp1 [1]: 2.85 fold | Fold-Change Tmed4 [1]: 2.06 fold | percentage of LSK cells vs DMSO (bone marrow cells [2]; [5]): significantly higher | percentage of Lineage negative cells vs DMSO (bone marrow cells [2]; [5]): significantly higher | lineage negative cell (bone marrow cells [2]; 0.5 μM 4 hrs, 14 days culture, DMSO 9%): 33% | LSK cells (bone marrow cells [2]; 0.5 μM 4 hrs, 14 days culture, DMSO 52%): 70% | LSKCD34negt cell numbers (bone marrow cells [2]; from every 10,000 analyzed cells, 0.5 μM 4 hrs, 14 days culture, DMSO 437): 2051 | colony morphology (cord blood CD34+ cells): more close to “stem cell colony” morphology | BrdU positive cells in LTR-HSC [3]: more BrdU positive cells | apoptosis (cleaved PARP) in LSK, lineage-negt and lineage-posit population (bone marrow cells [4]): significantly less apoptosis
